Calls of active or inactive are those of the source.
Assays:
SW1990 [1] = assay: Induction of cell cycle arrest in human SW1990 cells assessed as accumulation of cells at G2/M phase at 1 uM incubated for 4 days in presence of 3 uM Olaparib by propidium iodide staining based flow cytometry (reference value: 5.89%); assay type: functional; conditions: time 4 day
Mus musculus [2] = assay: Toxicity in BALB/c mouse xenografted with human SW1990 cells assessed as heart damage at 15 mg/kg, ip administered for 28 consecutive days by H and E staining based […] microscopic analysis; assay type: organism-based; conditions: in vivo, 672 h, time 28 day
Mus musculus [3] = assay: Toxicity in BALB/c mouse xenografted with human SW1990 cells assessed as effect on body weight at 15 mg/kg, ip administered for 28 consecutive days; assay type: organism-based; conditions: in vivo, 672 h, time 28 day
SW1990 [4] = assay: Inhibition of colony formation in human SW1990 cells at 0.5 uM after 14 days in presence of 1.5 uM Olaparib by crystal violet staining based microscopic analysis; assay type: functional, cell-based; conditions: time 14.0 day
SW1990 [5] = assay: Inhibition of homologous recombinant repair in human SW1990 cells assessed as reduction in FOXM1 expression at 4 uM after 4 days by Western blot analysis; assay type: functional, cell-based; conditions: time 4.0 day
SW1990 [6] = assay: Induction of autophagy in human SW1990 cells assessed as increase in LC3B expression at 4 uM incubated for 4 days by immunofluorescence assay; assay type: functional, cell-based; conditions: time 4.0 day
SW1990 [7] = assay: Induction of cell cycle arrest in human SW1990 cells assessed as accumulation of cells at G2/M phase at 4 uM incubated for 4 days by propidium iodide staining based flow cytometry (reference value: 5.89%); assay type: functional; conditions: time 4 day
Mus musculus [8] = assay: Toxicity in BALB/c mouse xenografted with human SW1990 cells assessed as kidney damage at 15 mg/kg, ip administered for 28 consecutive days in presence of 45 mg/kg Olaparib; assay type: organism-based; conditions: in vivo, 672 h, time 28 day
SW1990 [9] = assay: Induction of DNA damage in human SW1990 cells assessed as increase in gammaH2AX at 1 uM incubated for 4 days in presence of Olaparib by immunofluorescence assay; assay type: functional, cell-based; conditions: time 4.0 day
Mus musculus [10] = assay: Toxicity in BALB/c mouse xenografted with human SW1990 cells assessed as heart damage at 15 mg/kg, ip administered for 28 consecutive days in presence of 45 mg/kg Olaparib; assay type: organism-based; conditions: in vivo, 672 h, time 28 day
SW1990 [11] = assay: Effect on cell cycle progression in human SW1990 cells assessed as reduction in Olaparib-induced CCND1 expression at 1 uM after 4 days in presence of Olaparib by Q-PCR analysis; assay type: functional, cell-based; conditions: time 4.0 day
SW1990 [12] = assay: Effect on cell cycle progression in human SW1990 cells assessed as reduction in Olaparib-induced PLK1 expression at 1 uM after 4 days in presence of Olaparib by Western blot analysis; assay type: functional, cell-based; conditions: time 4.0 day
SW1990 [13] = assay: Effect on cell cycle progression in human SW1990 cells assessed as reduction in Olaparib-induced PLK1 expression at 1 uM after 4 days in presence of Olaparib by Q-PCR analysis; assay type: functional, cell-based; conditions: time 4.0 day
SW1990 [14] = assay: Induction of autophagy in human SW1990 cells assessed as increase in pULK1 expression at 1 to 2 uM incubated for 4 days by immunofluorescence assay; assay type: functional, cell-based; conditions: dose 1-2 µM, time 4.0 day
Mus musculus [15] = assay: In vivo inhibition of PARP1 expression in human […] cells xenografted in BALB/c mouse at 45 mg/kg, ip administered for 28 consecutive days by Q-PCR analysis; assay type: functional, organism-based; conditions: time 28.0 day
SW1990 [16] = assay: Induction of autophagy in human SW1990 cells xenografted in BALB/c mouse assessed as increase in beclin1 expression at 45 mg/kg, ip after 4 days by Q-PCR analysis; assay type: functional, organism-based; conditions: time 4.0 day
Mus musculus [17] = assay: Toxicity in BALB/c mouse xenografted with human SW1990 cells assessed as heart damage at 45 mg/kg, ip administered for 28 consecutive days by H and E staining based […] microscopic analysis; assay type: organism-based; conditions: in vivo, 672 h, time 28 day
SW1990 [18] = assay: Induction of apoptosis in human SW1990 cells assessed as early apoptotic cells at 2 uM after 4 days by Annexin V-FITC and propidium iodide staining based flow cytometry (reference value: […]%); assay type: functional; conditions: time 4 day
Mus musculus [19] = assay: Toxicity in BALB/c mouse xenografted with human SW1990 cells assessed as spleen damage at 45 mg/kg, ip administered for 28 consecutive days by H and E staining based […] microscopic analysis; assay type: organism-based; conditions: in vivo, 672 h, time 28 day
SW1990 [20] = assay: Induction of autophagy in human SW1990 cells assessed as increase in pAMPKalpha expression at 1 to 2 uM incubated for 4 days by immunofluorescence assay; assay type: functional, cell-based; conditions: dose 1-2 µM, time 4.0 day
SW1990 [21] = assay: Induction of autophagy in human SW1990 cells xenografted in BALB/c mouse assessed as decrease in p62 expression at 45 mg/kg, ip after 4 days by Q-PCR analysis; assay type: functional, organism-based; conditions: time 4.0 day
[22] = biological target: Bromodomain-containing protein 4 (Homo sapiens, UniProt O60885); assay: Inhibition of recombinant BRD4 (unknown origin) at 1 uM incubated for 120 mins by TR-FRET assay relative to control
SW1990 [23] = assay: Induction of autophagy in human SW1990 cells assessed as increase in Beclin1 expression at 1 to 2 uM incubated for 4 days by immunofluorescence assay; assay type: functional, cell-based; conditions: dose 1-2 µM, time 4.0 day
[24] = biological target: Poly [ADP-ribose] polymerase 1 (Homo sapiens, UniProt P09874); assay: Inhibition of PARP1 expression in human SW1990 cells at 1 uM after 4 days by Western blot analysis; assay type: cell-based; conditions: time 4.0 day
Mus musculus [25] = assay: Effect on cell cycle progression in human SW1990 cells xenografted in BALB/c mouse assessed as reduction in E2F2 expression at 45 mg/kg, ip after 4 days by Q-PCR analysis; assay type: functional, organism-based; conditions: time 4.0 day
SW1990 [26] = assay: Effect on cell cycle progression in human SW1990 cells assessed as reduction in CDK6 expression at 1 to 2 uM after 4 days by Q-PCR analysis; assay type: functional, cell-based; conditions: dose 1-2 µM, time 4.0 day
SW1990 [27] = assay: Induction of cell cycle arrest in human SW1990 cells assessed as accumulation of cells at S phase at 2 uM incubated for 4 days by propidium iodide staining based flow cytometry (reference value: 29.32%); assay type: functional; conditions: time 4 day
SW1990 [28] = assay: Inhibition of homologous recombinant repair in human SW1990 cells assessed as reduction in Rad51 expression at 1 to 2 uM after 4 days by Western blot analysis; assay type: functional, cell-based; conditions: dose 1-2 µM, time 4.0 day
Mus musculus [29] = assay: Effect on cell cycle progression in human SW1990 cells xenografted in BALB/c mouse assessed as reduction in CDK6 expression at 45 mg/kg, ip after 4 days by Q-PCR analysis; assay type: functional, organism-based; conditions: time 4.0 day
SW1990 [30] = assay: Antitumor activity against human SW1990 cells xenografted in BALB/c mouse assessed as inhibition of tumor growth at 45 mg/kg, ip administered for 28 consecutive days and measured every 3 days by vernier caliper method; assay type: functional, organism-based; conditions: time 28.0 day
SW1990 [31] = assay: Inhibition of homologous recombinant repair in human SW1990 cells assessed as increase in […] expression at 1 to 2 uM after 4 days by Western blot analysis; assay type: functional, cell-based; conditions: dose 1-2 µM, time 4.0 day
SW1990 [32] = assay: Induction of autophagy in human SW1990 cells xenografted in BALB/c mouse assessed as increase in ATG5 expression at 45 mg/kg, ip after 4 days by Western blot analysis; assay type: functional, organism-based; conditions: time 4.0 day
[33] = biological target: Bromodomain-containing protein 3 (Homo sapiens, UniProt Q15059); assay: Inhibition of recombinant BRD3 BD1 (unknown origin) incubated for 120 mins by TR-FRET assay
SW1990 [34] = assay: Inhibition of homologous recombinant repair in human SW1990 cells assessed as reduction in FOXM1 expression at 1 to 2 uM after 4 days by Western blot analysis; assay type: functional, cell-based; conditions: dose 1-2 µM, time 4.0 day

Sequence of Poly [ADP-ribose] polymerase 1 (P09874 whole entry): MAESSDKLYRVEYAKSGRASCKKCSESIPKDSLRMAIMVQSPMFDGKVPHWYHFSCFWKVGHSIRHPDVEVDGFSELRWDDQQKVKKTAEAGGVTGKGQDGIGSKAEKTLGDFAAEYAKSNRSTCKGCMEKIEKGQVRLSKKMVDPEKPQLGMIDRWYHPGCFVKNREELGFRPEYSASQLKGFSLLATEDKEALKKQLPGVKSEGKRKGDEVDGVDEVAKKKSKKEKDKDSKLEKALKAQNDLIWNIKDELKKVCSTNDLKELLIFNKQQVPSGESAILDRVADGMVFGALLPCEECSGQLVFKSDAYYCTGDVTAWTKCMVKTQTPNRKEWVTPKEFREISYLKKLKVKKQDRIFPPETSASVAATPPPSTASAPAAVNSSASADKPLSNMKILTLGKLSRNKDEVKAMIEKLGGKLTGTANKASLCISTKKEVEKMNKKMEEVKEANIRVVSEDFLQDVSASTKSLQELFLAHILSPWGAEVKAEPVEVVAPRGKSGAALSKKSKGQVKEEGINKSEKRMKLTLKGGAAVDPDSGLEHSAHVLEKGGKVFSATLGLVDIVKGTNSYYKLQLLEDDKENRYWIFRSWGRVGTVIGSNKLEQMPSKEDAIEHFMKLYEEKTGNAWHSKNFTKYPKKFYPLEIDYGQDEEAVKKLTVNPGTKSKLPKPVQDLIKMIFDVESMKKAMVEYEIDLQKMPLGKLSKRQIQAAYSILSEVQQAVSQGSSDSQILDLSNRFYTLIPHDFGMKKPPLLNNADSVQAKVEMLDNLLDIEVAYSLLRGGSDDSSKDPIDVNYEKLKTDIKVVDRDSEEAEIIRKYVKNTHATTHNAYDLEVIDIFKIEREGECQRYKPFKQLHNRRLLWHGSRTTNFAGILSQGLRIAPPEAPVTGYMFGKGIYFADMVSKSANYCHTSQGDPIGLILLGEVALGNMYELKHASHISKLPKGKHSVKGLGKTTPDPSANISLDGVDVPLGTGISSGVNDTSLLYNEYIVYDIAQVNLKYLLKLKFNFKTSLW
Sequence of Bromodomain-containing protein 3 (Q15059 whole entry): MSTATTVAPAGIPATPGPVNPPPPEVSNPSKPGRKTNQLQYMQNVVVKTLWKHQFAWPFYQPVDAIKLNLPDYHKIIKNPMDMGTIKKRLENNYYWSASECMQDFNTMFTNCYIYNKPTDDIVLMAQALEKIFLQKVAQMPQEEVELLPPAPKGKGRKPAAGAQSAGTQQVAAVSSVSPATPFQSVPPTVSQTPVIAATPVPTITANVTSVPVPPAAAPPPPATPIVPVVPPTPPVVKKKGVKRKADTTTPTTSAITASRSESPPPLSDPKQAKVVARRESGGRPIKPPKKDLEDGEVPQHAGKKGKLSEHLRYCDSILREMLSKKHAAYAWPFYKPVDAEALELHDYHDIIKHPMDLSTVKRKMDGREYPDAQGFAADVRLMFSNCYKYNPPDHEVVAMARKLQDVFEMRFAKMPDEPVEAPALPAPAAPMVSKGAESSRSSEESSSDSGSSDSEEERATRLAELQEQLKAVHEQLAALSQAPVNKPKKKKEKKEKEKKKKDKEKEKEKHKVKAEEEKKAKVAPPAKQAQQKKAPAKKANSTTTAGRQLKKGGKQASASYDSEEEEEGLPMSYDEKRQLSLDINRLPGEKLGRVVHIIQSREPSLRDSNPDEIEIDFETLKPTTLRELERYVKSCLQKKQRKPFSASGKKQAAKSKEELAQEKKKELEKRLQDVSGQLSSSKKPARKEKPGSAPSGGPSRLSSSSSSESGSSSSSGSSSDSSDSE

Cc1sc2c(c1C)C(c1ccc(Cl)cc1)=N[C@@H](CC(=O)OC(C)(C)C)c1nnc(C)n1-2
active: inhibition (SW1990 [4]) | inhibition (SW1990 [5]) | Activity (SW1990 [6]) | Activity (SW1990 [9]) | Activity (SW1990 [11]) | Activity (SW1990 [12]) | Activity (SW1990 [13])
9.14%: Activity (SW1990 [1])
5.51%: Activity (SW1990 [7])
Non-Toxic: Activity (Mus musculus [2]) | Activity (Mus musculus [3]) | Activity (Mus musculus [8]) | Activity (Mus musculus [10])

CC[C@@H]1C(=O)N(C)c2cnc(N(C)c3ccc(-c4nc5c(C(N)=O)cccc5[nH]4)cc3OC)nc2N1C1CCCC1
2.81%: Activity (SW1990 [18])
active: Activity (SW1990 [14]) | Activity (Mus musculus [15]) | Activity (SW1990 [16]) | Activity (SW1990 [20]) | Activity (SW1990 [21]) | Activity (SW1990 [23]) | inhibition [24] | Activity (Mus musculus [25]) | Activity (SW1990 [26]) | inhibition (SW1990 [28]) | Activity (Mus musculus [29]) | Activity (SW1990 [30]) | inhibition (SW1990 [31]) | Activity (SW1990 [32]) | inhibition (SW1990 [34])
Non-Toxic: Activity (Mus musculus [17]) | Activity (Mus musculus [19])
166 nM: IC50 [33]
9.21%: Activity (SW1990 [27])
76.2%: inhibition [22]
